Measured values: the NIST ThermoML archive (doi:10.1016/j.jct.2011.02.008)
± gives the expanded uncertainty stated by the source.

Conditions: Liquid, Vibrating tube method

CCCCCCO [hexan-1-ol]
mass density [kg/m3]
Conditions	278.15 K	288.15 K	298.15 K	308.15 K	318.15 K	328.15 K	338.15 K	348.15 K	358.15 K
100 kPa	828.9 ± 2.4	822.1 ± 2.4	814.9 ± 2.4	807.8 ± 2.4	800.5 ± 2.4	793 ± 2.4	785.4 ± 2.4	777.6 ± 2.4	769.4 ± 2.4
1000 kPa	829.5 ± 2.4	822.7 ± 2.4	815.6 ± 2.4	808.4 ± 2.4	801.2 ± 2.4	793.7 ± 2.4	786.2 ± 2.4	778.4 ± 2.4	770 ± 2.4
5000 kPa	832 ± 2.4	825.3 ± 2.4	818.4 ± 2.4	811.4 ± 2.4	804.3 ± 2.4	797 ± 2.4	789.6 ± 2.4	782 ± 2.4	774.2 ± 2.4
10000 kPa	835 ± 2.4	828.5 ± 2.4	821.7 ± 2.4	814.8 ± 2.4	807.9 ± 2.4	800.8 ± 2.4	793.6 ± 2.4	786.2 ± 2.4	778.6 ± 2.4
15000 kPa	838 ± 2.4	831.6 ± 2.4	824.9 ± 2.4	818.2 ± 2.4	811.4 ± 2.4	804.4 ± 2.4	797.4 ± 2.4	790.2 ± 2.4	782.8 ± 2.4
20000 kPa	840.8 ± 2.4	834.6 ± 2.4	828 ± 2.4	821.4 ± 2.4	814.7 ± 2.4	807.9 ± 2.4	801 ± 2.4	794.1 ± 2.4	786.9 ± 2.4
25000 kPa	843.6 ± 2.4	837.4 ± 2.4	830.9 ± 2.4	824.5 ± 2.4	817.9 ± 2.4	811.2 ± 2.4	804.5 ± 2.4	797.6 ± 2.4	790.7 ± 2.4
30000 kPa	846.3 ± 2.4	840.2 ± 2.4	833.8 ± 2.4	827.5 ± 2.4	821 ± 2.4	814.4 ± 2.4	807.9 ± 2.4	801.2 ± 2.4	794.3 ± 2.4
35000 kPa	848.9 ± 2.4	842.9 ± 2.4	836.6 ± 2.4	830.3 ± 2.4	824 ± 2.4	817.6 ± 2.4	811.1 ± 2.4	804.6 ± 2.4	797.9 ± 2.4
40000 kPa	851.4 ± 2.4	845.5 ± 2.4	839.4 ± 2.4	833.2 ± 2.4	826.9 ± 2.4	820.6 ± 2.4	814.2 ± 2.4	807.8 ± 2.4	801.3 ± 2.4
45000 kPa	853.9 ± 2.4	848 ± 2.4	842 ± 2.4	835.9 ± 2.4	829.7 ± 2.4	823.5 ± 2.4	817.3 ± 2.4	811 ± 2.4	804.6 ± 2.4
50000 kPa	856.3 ± 2.4	850.5 ± 2.4	844.6 ± 2.4	838.5 ± 2.4	832.4 ± 2.4	826.4 ± 2.4	820.2 ± 2.4	814 ± 2.4	807.7 ± 2.4
55000 kPa	858.7 ± 2.4	853 ± 2.4	847.1 ± 2.4	841.1 ± 2.4	835.1 ± 2.4	829.1 ± 2.4	823.1 ± 2.4	817 ± 2.4	810.8 ± 2.4
60000 kPa	860.9 ± 2.4	855.4 ± 2.4	849.6 ± 2.4	843.5 ± 2.4	837.7 ± 2.4	831.6 ± 2.4	825.7 ± 2.4	819.7 ± 2.4	813.5 ± 2.5

COC(=O)c1ccccc1 [methyl benzoate]
mass density [kg/m3]
Conditions	278.15 K	288.15 K	298.15 K	308.15 K	318.15 K	328.15 K	338.15 K	348.15 K	358.15 K
100 kPa	1101.5 ± 2.4	1092.1 ± 2.4	1082.7 ± 2.4	1073 ± 2.4	1063.3 ± 2.4	1053.6 ± 2.4	1044.1 ± 2.4	1034.4 ± 2.4	1024.9 ± 2.4
1000 kPa	1102.1 ± 2.4	1092.6 ± 2.4	1083.2 ± 2.4	1073.6 ± 2.4	1063.8 ± 2.4	1054.3 ± 2.4	1044.8 ± 2.4	1035.1 ± 2.4	1025.6 ± 2.4
5000 kPa	1104.4 ± 2.4	1095 ± 2.4	1085.8 ± 2.4	1076.2 ± 2.4	1066.7 ± 2.4	1057.2 ± 2.4	1048 ± 2.4	1038.4 ± 2.4	1029.1 ± 2.4
10000 kPa	1107.2 ± 2.4	1097.9 ± 2.4	1089 ± 2.4	1079.5 ± 2.4	1070.1 ± 2.4	1060.8 ± 2.4	1051.7 ± 2.4	1042.4 ± 2.4	1033.3 ± 2.4
15000 kPa	1109.9 ± 2.4	1100.8 ± 2.4	1091.8 ± 2.4	1082.6 ± 2.4	1073.4 ± 2.4	1064.3 ± 2.4	1055.3 ± 2.4	1046.2 ± 2.4	1037.3 ± 2.4
20000 kPa	1112.6 ± 2.4	1103.6 ± 2.4	1094.8 ± 2.4	1085.7 ± 2.4	1076.6 ± 2.4	1067.6 ± 2.4	1058.8 ± 2.4	1049.8 ± 2.4	1041.2 ± 2.4
25000 kPa	1115.2 ± 2.4	1106.3 ± 2.4	1097.6 ± 2.4	1088.6 ± 2.4	1079.7 ± 2.4	1070.9 ± 2.4	1062.2 ± 2.4	1053.4 ± 2.4	1044.9 ± 2.4
30000 kPa	1117.7 ± 2.4	1109 ± 2.4	1100.4 ± 2.4	1091.5 ± 2.4	1082.8 ± 2.4	1074 ± 2.4	1065.5 ± 2.4	1056.9 ± 2.4	1048.5 ± 2.4
35000 kPa	1120.2 ± 2.4	1111.6 ± 2.4	1103.1 ± 2.4	1094.3 ± 2.4	1085.7 ± 2.4	1077.1 ± 2.4	1068.8 ± 2.4	1060.3 ± 2.4	1052 ± 2.4
40000 kPa	1122.7 ± 2.4	1114.1 ± 2.4	1105.7 ± 2.4	1097.1 ± 2.4	1088.6 ± 2.4	1080.1 ± 2.4	1071.9 ± 2.4	1063.5 ± 2.4	1055.4 ± 2.4
45000 kPa	1125.1 ± 2.4	1116.6 ± 2.4	1108.3 ± 2.4	1099.8 ± 2.4	1091.4 ± 2.4	1083 ± 2.4	1074.9 ± 2.4	1066.7 ± 2.4	1058.7 ± 2.4
50000 kPa	1127.4 ± 2.4	1119.1 ± 2.4	1110.9 ± 2.4	1102.4 ± 2.4	1094.1 ± 2.4	1085.9 ± 2.4	1077.9 ± 2.4	1069.8 ± 2.4	1061.9 ± 2.4
55000 kPa	1129.7 ± 2.4	1121.4 ± 2.4	1113.4 ± 2.4	1105 ± 2.4	1096.8 ± 2.4	1088.7 ± 2.4	1080.8 ± 2.4	1072.8 ± 2.4	1065.1 ± 2.4
60000 kPa	1131.8 ± 2.4	1123.6 ± 2.4	1115.6 ± 2.4	1107.4 ± 2.4	1099.3 ± 2.4	1091.2 ± 2.4	1083.5 ± 2.4	1075.5 ± 2.4	1067.9 ± 2.4
